ChEMBL document CHEMBL1141530, “Synthesis and SAR of 1-acetanilide-4-aminopyrazole-substituted quinazolines: selective inhibitors of Aurora B kinase with potent anti-tumor activity” (Bioorg Med Chem Lett, 2008)
In brackets after ≈: the same amount, converted by molar mass. Activity calls are given as the source filed them. The rule behind the calls is not given here.

What was measured:
[1] = Solubility in tris buffer at pH 9; format: physicochemical
[2] = molecular target: Cytochrome P450 3A4 (Homo sapiens, UniProt P08684); test: Inhibition of human CYP3A4; format: ADME
[3] = molecular target: Voltage-gated inwardly rectifying potassium channel KCNH2 (Homo sapiens, UniProt Q12809); test: Inhibition of human ERG by automated whole cell electrophysiology
[4] = tested on: SW-620; test: Antiproliferative activity against human SW620 cells assessed as inhibition of DNA synthesis after 48 hrs by 2-h BrdU uptake assay; format: functional, cell-based
[5] = tested on: Mus musculus; test: Inhibition of histone-H3 phosphorylation in human SW620 cells xenografted mouse at 0.5 mg/kg/day, sc after 48 hrs; format: functional, organism-based; details: SW-620
[6] = tested on: Mus musculus; test: Inhibition of histone-H3 phosphorylation in human SW620 cells xenografted mouse at 2.5 mg/kg/day, sc after 48 hrs; format: functional; details: SW-620, sc, route subcutaneous
[7] = tested on: SW-620; test: Antitumor activity against human SW620 cells xenografted in mouse assessed as tumor growth inhibition at 50 mg/kg after 24 hrs; format: functional; design: scale not given: the % may be the effect or the level left
[8] = tested on: SW-620; test: Antitumor activity against human SW620 cells xenografted in mouse assessed as reduction in tumor size at 2.5 mg/kg after 48 hrs; format: functional, organism-based; design: dose 2.5 mg/kg

Voltage-gated inwardly rectifying potassium channel KCNH2, sequence (Q12809 whole entry): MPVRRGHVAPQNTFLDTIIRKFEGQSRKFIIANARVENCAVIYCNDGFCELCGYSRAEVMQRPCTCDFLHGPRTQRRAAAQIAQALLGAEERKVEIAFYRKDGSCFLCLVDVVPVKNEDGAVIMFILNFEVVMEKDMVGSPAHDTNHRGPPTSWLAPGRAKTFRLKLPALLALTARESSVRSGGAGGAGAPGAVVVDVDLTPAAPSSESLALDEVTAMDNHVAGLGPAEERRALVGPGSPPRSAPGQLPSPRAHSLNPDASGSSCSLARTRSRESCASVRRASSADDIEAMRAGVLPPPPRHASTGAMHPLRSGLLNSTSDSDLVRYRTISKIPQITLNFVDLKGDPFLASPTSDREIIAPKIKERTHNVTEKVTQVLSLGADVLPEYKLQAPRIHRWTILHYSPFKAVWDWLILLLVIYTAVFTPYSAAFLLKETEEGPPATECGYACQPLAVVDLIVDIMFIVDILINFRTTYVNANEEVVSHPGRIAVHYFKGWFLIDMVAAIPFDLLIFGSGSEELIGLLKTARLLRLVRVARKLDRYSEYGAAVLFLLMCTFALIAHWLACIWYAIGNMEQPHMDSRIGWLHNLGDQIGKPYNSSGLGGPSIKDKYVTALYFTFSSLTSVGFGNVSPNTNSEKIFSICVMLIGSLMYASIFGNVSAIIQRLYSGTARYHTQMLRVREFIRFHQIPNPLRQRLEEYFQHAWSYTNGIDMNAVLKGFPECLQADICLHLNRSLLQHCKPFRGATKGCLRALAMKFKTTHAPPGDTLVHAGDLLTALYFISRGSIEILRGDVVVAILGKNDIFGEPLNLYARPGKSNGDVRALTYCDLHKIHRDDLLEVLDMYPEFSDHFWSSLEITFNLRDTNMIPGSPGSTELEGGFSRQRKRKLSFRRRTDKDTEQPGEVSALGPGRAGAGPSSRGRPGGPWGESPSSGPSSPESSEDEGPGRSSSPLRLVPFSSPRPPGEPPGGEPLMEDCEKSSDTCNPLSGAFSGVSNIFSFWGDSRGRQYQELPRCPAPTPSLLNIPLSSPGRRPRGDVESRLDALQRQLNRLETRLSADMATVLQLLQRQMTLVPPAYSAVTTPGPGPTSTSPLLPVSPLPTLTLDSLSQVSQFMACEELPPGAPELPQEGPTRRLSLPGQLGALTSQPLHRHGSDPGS
Cytochrome P450 3A4, sequence (P08684 whole entry): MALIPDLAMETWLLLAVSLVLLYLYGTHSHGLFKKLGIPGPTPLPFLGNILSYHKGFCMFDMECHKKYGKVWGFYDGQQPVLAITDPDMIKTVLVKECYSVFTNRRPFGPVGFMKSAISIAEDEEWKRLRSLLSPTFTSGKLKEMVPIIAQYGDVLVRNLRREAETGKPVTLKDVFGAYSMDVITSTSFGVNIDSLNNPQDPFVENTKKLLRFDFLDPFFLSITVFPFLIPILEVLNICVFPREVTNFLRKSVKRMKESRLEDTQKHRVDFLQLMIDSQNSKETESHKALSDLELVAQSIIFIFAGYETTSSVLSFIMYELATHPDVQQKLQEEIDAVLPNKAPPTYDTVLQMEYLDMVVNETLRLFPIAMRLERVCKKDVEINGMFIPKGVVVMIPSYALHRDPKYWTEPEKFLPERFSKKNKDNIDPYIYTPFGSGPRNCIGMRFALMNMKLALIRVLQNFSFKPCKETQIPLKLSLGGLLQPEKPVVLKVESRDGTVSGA

solubility [1]: 10000 µg/mL (≈ 16.2 mM)
IC50 [2]: 6.1 µM
IC50 [4]: < 0.001 µM
Compound: O=C(Cn1cc(Nc2ncnc3cc(OCCCN4CCC[C@@H]4COP(=O)(O)O)ccc23)cn1)Nc1cccc(F)c1F
IC50 [3]: > 100 µM
Activity [5]: Active
inhibition in vivo at 2.5 mg/kg/day [6]: 75%
Activity [7]: 89%
Activity [8]: Active
